Reference: patent publication US11919899B2, “Substituted 1-(3,3-difluoropiperidin-4-yl)-imidazo[4,5-c] quinolin-2-one compounds with blood-brain barrier penetrable capability” (priority 2020, dated 2024)

Tests used:
[1] = Blood-brain barrier penetration (brain tissue to plasma concentration ratio); type: in vivo; details: ratio of concentration in brain tissue to plasma; rats or mice, four hours after dosing
Description: Four hours after dosing, rats or mice were sacrificed, blood and brain tissue were collected and the concentration of the test compound was analyzed. Brain permeation is defined as the ratio of the concentration of the compound in the brain tissue to the concentration in the plasma. P-glycoprotein and BCRP (Breast Cancer Resistance Protein) are the blood-brain barrier efflux proteins, the P-glycoprotein substrate (Efflux ratio>1.5) and/or BCRP substrate (Efflux ratio>1.5) is out of the brain.

P-glycoprotein = P-glycoprotein (Homo sapiens, UniProt P08183); experiment: P-glycoprotein efflux substrate; type: in vitro ADME; details: not told
BCRP = biological target: T1, BCRP (Homo sapiens, UniProt Q9UNQ0); experiment: BCRP efflux substrate; type: in vitro ADME; details: not told
T1 sequence (Q9UNQ0 1-655): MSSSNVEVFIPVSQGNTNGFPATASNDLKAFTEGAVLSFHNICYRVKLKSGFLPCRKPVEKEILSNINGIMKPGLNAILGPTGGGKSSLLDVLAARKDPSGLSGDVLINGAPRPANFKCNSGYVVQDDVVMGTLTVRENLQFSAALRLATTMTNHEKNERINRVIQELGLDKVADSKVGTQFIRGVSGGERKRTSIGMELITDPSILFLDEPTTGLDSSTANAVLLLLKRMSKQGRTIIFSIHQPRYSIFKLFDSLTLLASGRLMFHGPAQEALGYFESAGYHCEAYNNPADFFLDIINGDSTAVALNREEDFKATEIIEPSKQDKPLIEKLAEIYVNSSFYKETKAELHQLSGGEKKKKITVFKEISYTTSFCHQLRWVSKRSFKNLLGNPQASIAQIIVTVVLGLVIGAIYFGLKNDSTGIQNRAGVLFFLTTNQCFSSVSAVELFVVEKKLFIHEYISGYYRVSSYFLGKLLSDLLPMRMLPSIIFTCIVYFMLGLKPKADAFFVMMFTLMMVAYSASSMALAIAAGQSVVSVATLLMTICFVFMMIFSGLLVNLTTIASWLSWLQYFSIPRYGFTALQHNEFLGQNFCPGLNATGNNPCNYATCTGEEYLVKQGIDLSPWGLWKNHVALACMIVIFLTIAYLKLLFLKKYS

Chain of P-glycoprotein (P08183 whole entry): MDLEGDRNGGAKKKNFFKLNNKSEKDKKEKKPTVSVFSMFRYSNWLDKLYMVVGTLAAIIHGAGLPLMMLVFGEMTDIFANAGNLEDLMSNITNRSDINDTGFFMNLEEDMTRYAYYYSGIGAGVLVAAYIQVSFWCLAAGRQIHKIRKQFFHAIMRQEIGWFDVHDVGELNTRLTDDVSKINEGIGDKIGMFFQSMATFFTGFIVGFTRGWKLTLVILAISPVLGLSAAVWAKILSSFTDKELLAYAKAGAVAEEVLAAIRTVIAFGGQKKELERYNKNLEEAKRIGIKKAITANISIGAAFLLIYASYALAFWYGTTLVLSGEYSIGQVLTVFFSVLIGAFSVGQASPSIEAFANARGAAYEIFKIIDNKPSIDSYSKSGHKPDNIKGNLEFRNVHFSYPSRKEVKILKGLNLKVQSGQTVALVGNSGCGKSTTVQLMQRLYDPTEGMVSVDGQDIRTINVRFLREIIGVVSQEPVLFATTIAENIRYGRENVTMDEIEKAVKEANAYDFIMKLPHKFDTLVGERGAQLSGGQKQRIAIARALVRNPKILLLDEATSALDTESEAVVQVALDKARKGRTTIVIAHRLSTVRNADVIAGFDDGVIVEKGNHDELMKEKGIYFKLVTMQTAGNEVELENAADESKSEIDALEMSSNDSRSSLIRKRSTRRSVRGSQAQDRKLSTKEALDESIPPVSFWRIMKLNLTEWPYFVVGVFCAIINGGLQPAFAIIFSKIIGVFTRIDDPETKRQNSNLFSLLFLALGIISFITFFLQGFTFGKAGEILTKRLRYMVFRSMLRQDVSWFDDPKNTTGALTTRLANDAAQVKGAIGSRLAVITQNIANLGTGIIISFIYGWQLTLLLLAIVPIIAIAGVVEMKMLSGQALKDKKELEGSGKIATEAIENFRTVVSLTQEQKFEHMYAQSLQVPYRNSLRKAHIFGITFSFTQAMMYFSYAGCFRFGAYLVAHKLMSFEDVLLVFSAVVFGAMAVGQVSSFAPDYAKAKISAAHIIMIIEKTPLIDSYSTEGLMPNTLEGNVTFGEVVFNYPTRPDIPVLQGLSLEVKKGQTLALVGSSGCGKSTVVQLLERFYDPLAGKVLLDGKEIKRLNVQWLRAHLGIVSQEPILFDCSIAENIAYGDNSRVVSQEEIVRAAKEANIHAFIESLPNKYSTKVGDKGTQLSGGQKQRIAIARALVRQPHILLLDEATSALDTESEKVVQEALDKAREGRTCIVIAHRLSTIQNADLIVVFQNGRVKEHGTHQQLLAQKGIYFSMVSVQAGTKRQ

Compound	Kp at 4 h [1]	efflux ratio (P-glycoprotein)	efflux ratio (BCRP)
COc1ccc(-c2ccc3ncc4c(c3c2)n([C@@H]2CCN(C(C)C)CC2(F)F)c(=O)n4C)cn1 [Compound 16, (R)-1-(3,3-difluoro-1-isopropylpiperidin-4-yl)-8-(6-methoxypyridin-3-yl)-3-methyl-1,3-dihydro-2H-imidazo[4,5-c]quinolin-2-one]	> 0.3	< 1	< 1
CCN1CCC(n2c(=O)n(C)c3cnc4ccc(-c5ccc(OC)nc5)cc4c32)C(F)(F)C1 (racemic) [Compound 2, (R/S)-1-(1-ethyl-3,3-difluoropiperidin-4-yl)-8-(6-methoxypyridin-3-yl)-3-methyl-1,3-dihydro-2H-imidazo[4,5-c]quinolin-2-one]	> 0.3	< 1	< 1
CCN1CC[C@@H](n2c(=O)n(C)c3cnc4ccc(-c5ccc(OC)nc5)cc4c32)C(F)(F)C1 [Compound 15, (R)-1-(1-ethyl-3,3-difluoropiperidin-4-yl)-8-(6-methoxypyridin-3-yl)-3-methyl-1,3-dihydro-2H-imidazo[4,5-c]quinolin-2-one]	> 0.3	< 1	< 1

Continued, values first:

Kp at 4 h [1]	efflux ratio (P-glycoprotein)	efflux ratio (BCRP)	Compound
> 0.3	< 1	< 1	CCOc1ccc(-c2ccc3ncc4c(c3c2)n([C@@H]2CCN(C)CC2(F)F)c(=O)n4C)cn1 [Compound 17, (R)-1-(3,3-difluoro-1-methylpiperidin-4-yl)-8-(6-ethoxypyridin-3-yl)-3-methyl-1,3-dihydro-2H-imidazo[4,5-c]quinolin-2-one]
> 0.3	< 1	< 1	CN1CC[C@@H](n2c(=O)n(C)c3cnc4ccc(-c5ccc(N(C)C)nc5)cc4c32)C(F)(F)C1 [Compound 21, (R)-1-(3,3-difluoro-1-methylpiperidin-4-yl)-8-(6-(dimethylamino)pyridin-3-yl)-3-methyl-1,3-dihydro-2H-imidazo[4,5-c]quinolin-2-one]
> 0.3	< 1	< 1	CN1CC[C@H](n2c(=O)n(C)c3cnc4ccc(-c5ccc(N(C)C)nc5)cc4c32)C(F)(F)C1 [Compound 35, (S)-1-(3,3-difluoro-1-methylpiperidin-4-yl)-8-(6-(dimethylamino)pyridin-3-yl)-3-methyl-1,3-dihydro-2H-imidazo[4,5-c]quinolin-2-one]
